Ten compounds from ChEMBL document CHEMBL4425144, “Discovery and Structural Optimization of N5-Substituted 6,7-Dioxo-6,7-dihydropteridines as Potent and Selective Epidermal Growth Factor Receptor (EGFR) Inhibitors against L858R/T790M Resistance Mutation” (J Med Chem, 2016) can be followed below.

Data set [1] is described as follows: Thermodynamic solubility of the compound in 0.1M PBS buffer at pH 7.4 by UV-visible spectrophotometry. Type of data set: physicochemical. The note with it: read-out: Therm_solubility.
For data set [2], the target named is Epidermal growth factor receptor (Homo sapiens, UniProt P00533). Description: Inhibition of wild type EGFR kinase domain (unknown origin) expressed using baculovirus expression system incubated for 1 hr using Poly(Glu,Tyr) 4:1 by ELISA method.
The next data set relates to NCI-H1975. The data set can be described thus: Antiproliferative activity against human NCI-H1975 cells incubated for 72 hrs by SRB assay. The note with it: NCI-H1975, 72 h. It is filed as functional, cell-based.
The target of data set [3] is Epidermal growth factor receptor (Homo sapiens, UniProt P00533, L858R/T790M). Description: Inhibition of EGFR kinase domain L858R/T790M mutant (unknown origin) expressed using baculovirus expression system incubated for 1 hr using Poly(Glu,Tyr) 4:1 by ELISA method.
A short description of data set [4]: Dissociation constant, pKa of the compound by Sirius T3 based assay. It is filed as physicochemical.
Data set [5] deals with A-431. The data set can be described thus: Antiproliferative activity against human A431 cells incubated for 72 hrs by SRB assay. It is filed as functional, cell-based. The note with it: A-431, 72 h.
Data set [6] relates to A-431. Description: Antitumor activity against human A431 cells xenografted in BALB/c mouse assessed as inhibition of tumor growth at 25 mg/kg, po qd for 14 consecutive days. Type of data set: functional. The note with it: A-431, po, read-out: TGI. Background: In xenograft studies the graft and the host belong to different species.

The structures appear in SMILES notation. ≈ marks a conversion by molar mass, not a printed value. A value given as a limit tells only on which side of the number the result lay.

Chain of Epidermal growth factor receptor (Homo sapiens, UniProt P00533) (P00533 whole entry, the tested form may be a part): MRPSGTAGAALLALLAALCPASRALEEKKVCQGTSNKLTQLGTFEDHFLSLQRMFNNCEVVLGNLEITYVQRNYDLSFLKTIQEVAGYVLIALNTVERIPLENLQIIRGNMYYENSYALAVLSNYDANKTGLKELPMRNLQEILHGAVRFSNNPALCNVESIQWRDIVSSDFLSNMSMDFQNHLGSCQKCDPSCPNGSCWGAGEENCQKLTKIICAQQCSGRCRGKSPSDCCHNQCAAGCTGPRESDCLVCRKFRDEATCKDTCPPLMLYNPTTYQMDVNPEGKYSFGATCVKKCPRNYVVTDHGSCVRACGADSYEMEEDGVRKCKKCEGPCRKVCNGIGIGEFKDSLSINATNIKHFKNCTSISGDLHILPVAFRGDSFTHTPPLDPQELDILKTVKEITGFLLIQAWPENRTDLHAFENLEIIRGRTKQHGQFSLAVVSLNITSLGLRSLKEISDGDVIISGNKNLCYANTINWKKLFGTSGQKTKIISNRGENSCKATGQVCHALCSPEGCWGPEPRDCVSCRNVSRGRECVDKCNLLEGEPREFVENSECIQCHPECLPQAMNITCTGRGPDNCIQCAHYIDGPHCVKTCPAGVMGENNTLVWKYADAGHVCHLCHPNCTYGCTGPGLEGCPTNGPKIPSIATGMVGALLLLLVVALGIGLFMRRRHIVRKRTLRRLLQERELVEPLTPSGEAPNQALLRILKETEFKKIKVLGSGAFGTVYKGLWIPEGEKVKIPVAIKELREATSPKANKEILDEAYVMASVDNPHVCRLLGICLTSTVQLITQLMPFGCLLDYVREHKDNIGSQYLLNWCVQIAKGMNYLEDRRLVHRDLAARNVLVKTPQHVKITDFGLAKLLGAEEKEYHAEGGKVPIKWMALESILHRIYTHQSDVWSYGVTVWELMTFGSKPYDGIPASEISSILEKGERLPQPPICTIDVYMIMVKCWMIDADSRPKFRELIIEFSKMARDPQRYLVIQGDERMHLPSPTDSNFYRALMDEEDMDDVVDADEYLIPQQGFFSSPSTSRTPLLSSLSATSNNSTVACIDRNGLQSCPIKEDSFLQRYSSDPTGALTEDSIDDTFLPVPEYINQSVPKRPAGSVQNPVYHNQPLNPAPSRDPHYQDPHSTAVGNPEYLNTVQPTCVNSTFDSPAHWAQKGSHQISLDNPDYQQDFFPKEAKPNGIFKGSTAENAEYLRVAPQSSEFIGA
Chain of Epidermal growth factor receptor (Homo sapiens, UniProt P00533, L858R/T790M) (P00533 25-1210 T790M/L858R limits assumed): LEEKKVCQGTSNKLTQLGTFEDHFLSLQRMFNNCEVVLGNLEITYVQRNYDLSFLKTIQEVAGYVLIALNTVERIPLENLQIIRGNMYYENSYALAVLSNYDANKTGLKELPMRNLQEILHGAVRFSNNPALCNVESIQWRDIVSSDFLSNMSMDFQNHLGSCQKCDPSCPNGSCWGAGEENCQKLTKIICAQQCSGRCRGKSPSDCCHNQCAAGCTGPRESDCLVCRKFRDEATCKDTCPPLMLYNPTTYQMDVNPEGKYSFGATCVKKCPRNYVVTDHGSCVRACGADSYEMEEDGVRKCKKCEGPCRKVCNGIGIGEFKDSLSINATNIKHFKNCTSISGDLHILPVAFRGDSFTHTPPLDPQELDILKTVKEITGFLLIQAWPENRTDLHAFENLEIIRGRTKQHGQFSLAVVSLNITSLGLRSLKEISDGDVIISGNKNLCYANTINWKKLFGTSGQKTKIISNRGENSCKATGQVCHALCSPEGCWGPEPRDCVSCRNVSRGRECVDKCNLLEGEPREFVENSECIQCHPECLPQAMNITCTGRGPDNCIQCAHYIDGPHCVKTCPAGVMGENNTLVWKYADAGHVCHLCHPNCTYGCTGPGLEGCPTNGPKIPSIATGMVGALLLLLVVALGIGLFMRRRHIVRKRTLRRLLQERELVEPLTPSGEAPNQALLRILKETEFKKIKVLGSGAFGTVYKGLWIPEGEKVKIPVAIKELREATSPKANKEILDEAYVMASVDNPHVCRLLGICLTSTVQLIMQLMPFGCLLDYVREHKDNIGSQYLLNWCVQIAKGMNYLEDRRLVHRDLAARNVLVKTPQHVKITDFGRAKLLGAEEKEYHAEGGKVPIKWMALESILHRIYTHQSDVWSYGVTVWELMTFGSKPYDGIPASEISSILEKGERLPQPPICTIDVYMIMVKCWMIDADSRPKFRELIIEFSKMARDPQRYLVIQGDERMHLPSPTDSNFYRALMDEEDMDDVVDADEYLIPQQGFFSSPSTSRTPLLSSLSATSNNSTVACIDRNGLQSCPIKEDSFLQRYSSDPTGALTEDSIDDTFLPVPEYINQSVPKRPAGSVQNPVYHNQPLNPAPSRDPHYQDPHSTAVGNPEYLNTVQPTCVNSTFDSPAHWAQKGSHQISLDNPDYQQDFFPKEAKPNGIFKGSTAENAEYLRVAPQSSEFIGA

Regarding `C=CC(=O)Nc1cccc(-n2c(=O)c(=O)n(C(C)C)c3cnc(Nc4ccc(N(C)CCN(C)C)cc4OC)nc32)c1`, the solubility thermodynamic in data set [1] turned out to be 1620 µg/mL (≈ 2830 µM). Further, the IC50 in data set [2] stood at 223 nM; with NCI-H1975, 440 nM; in data set [3] it was 17 nM; in the data set on A-431 [5], 1530 nM. The same compound displayed a pKa in data set [4] of 8.9.

Turning to `C=CC(=O)Nc1cccc(-n2c(=O)c(=O)n(CCC)c3cnc(Nc4ccc(N5CCN(C)CC5)cc4OC)nc32)c1`, the solubility thermodynamic in data set [1] was below 10 µg/mL. Moreover, the IC50 in data set [2] turned out to be 2.2 nM; in the data set on NCI-H1975, 119 nM; in data set [3] it was 0.6 nM; with A-431 [5] it was 2140 nM. In data set [4], this compound yielded a pKa of 7.5.

As to `CN(C)C/C=C/C(=O)Nc1cc2c(Nc3ccc(F)c(Cl)c3)ncnc2cc1O[C@H]1CCOC1` [AFATINIB], the inhibition in vivo at 25 mg/kg in the data set on A-431 [6] was determined as 94%.

`C=CC(=O)Nc1cccc(-n2c(=O)c(=O)n(C(C)C)c3cnc(Nc4ccc(N5CCC(N6CCN(C)CC6)CC5)cc4OC)nc32)c1`: the solubility thermodynamic in data set [1] came to 109 µg/mL (≈ 167 µM). Moreover, the IC50 in data set [2] was determined as 28 nM; in the data set with NCI-H1975, 1190 nM; in data set [3] it was 7.8 nM; with A-431 [5], 2260 nM. This compound gave a pKa in data set [4] of 8.8.

Take `C=CC(=O)Nc1cccc(-n2c(=O)c(=O)n(C)c3cnc(Nc4ccc(N5CCN(C)CC5)cc4OC)nc32)c1`: the solubility thermodynamic in data set [1] worked out at 392 µg/mL (≈ 722 µM). For the same compound, the IC50 in data set [2] was 474 nM; with NCI-H1975, 1770 nM; in data set [3], 4.7 nM; in the data set with A-431 [5], above 10000 nM. Besides, in data set [4], the pKa came to 7.3.

With `C=CC(=O)Nc1cccc(-n2c(=O)c(=O)n(C(C)C)c3cnc(Nc4ccc(OCCN(C)C)cc4OC)nc32)c1`, in data set [1], the solubility thermodynamic was 437 µg/mL (≈ 781 µM). In addition, the IC50 in data set [2] was determined as 68 nM; with NCI-H1975, 415 nM; in data set [3], 143 nM; in the data set with A-431 [5], 1500 nM. Moreover, the pKa in data set [4] was 8.8.

Take `C=CC(=O)Nc1cccc(-n2c(=O)c(=O)[nH]c3cnc(Nc4ccc(N5CCN(C)CC5)cc4OC)nc32)c1`: the solubility thermodynamic in data set [1] amounted to 839 µg/mL (≈ 1590 µM). Also, the IC50 is 2.8 nM in data set [2], above 10000 nM in the data set with NCI-H1975, 2.5 nM in data set [3] and above 10000 nM in the data set on A-431 [5]. For the same compound, the pKa in data set [4] turned out to be 7.8.

Turning to `C=CC(=O)Nc1cccc(-n2c(=O)c(=O)n(C(C)C)c3cnc(Nc4ccc(N5CCN(C)CC5)c(C)c4)nc32)c1`, the solubility thermodynamic in data set [1] worked out at 190 µg/mL (≈ 343 µM). In addition, the IC50 in data set [2] was 1.4 nM; with NCI-H1975, 151 nM; in data set [3], 1.5 nM; in the data set on A-431 [5], 309 nM. Further, the pKa in data set [4] turned out to be 8.1.

On to `C=CC(=O)Nc1cccc(-n2c(=O)c(=O)n(C(C)C)c3cnc(Nc4ccc(N5CCN(C)CC5)c(OC)c4)nc32)c1`, for which the solubility thermodynamic in data set [1] amounted to 298 µg/mL (≈ 522 µM). Further, the IC50 in data set [2] was determined as 8.6 nM; in the data set with NCI-H1975 it was 213 nM; in data set [3] it was 1.3 nM; with A-431 [5], 669 nM. Moreover, in data set [4], the pKa was found to be 8.4.

As for `C=CC(=O)Nc1cccc(-n2c(=O)c(=O)n(CC)c3cnc(Nc4ccc(N5CCN(C)CC5)cc4OC)nc32)c1`, in data set [1], the solubility thermodynamic is below 10 µg/mL. The IC50 is 81 nM in data set [2], 126 nM with NCI-H1975, 1.2 nM in data set [3] and 8820 nM in the data set with A-431 [5]. Besides, in data set [4], the pKa amounted to 7.4.

By IC50 is commonly meant the midpoint of a concentration-inhibition curve. A lower IC50 goes with greater potency in that assay. By pKa is commonly meant the negative logarithm of the acid dissociation constant. Higher therefore signals a weaker acid or stronger base.
